Residue numbers refer to the chain shown, from its start.
Key:
[1] = molecular target: T1, Glycolyl-CoA Carboxylase GCC M5 variant G20R (Methylorubrum extorquens propionyl-CoA carboxylase variant G20R, L100S, Y143H, D407I, I450V, W502R); β-subunit SEQ (Methylorubrum extorquens, UniProt C5AP75, D407I/G20R/I450V/L100S/W502R/Y143H); test: Kinetic characterization of GCC M5 G20R (Vmax, kcat, App. KM) using LC-MS assays; format: biochemical
T1 construct: overexpressed in E. coli BL21-birA with M. extorquens biotin ligase
T1 sequence (C5AP75 1-510 G20R/L100S/Y143H/D407I/I450V/W502R): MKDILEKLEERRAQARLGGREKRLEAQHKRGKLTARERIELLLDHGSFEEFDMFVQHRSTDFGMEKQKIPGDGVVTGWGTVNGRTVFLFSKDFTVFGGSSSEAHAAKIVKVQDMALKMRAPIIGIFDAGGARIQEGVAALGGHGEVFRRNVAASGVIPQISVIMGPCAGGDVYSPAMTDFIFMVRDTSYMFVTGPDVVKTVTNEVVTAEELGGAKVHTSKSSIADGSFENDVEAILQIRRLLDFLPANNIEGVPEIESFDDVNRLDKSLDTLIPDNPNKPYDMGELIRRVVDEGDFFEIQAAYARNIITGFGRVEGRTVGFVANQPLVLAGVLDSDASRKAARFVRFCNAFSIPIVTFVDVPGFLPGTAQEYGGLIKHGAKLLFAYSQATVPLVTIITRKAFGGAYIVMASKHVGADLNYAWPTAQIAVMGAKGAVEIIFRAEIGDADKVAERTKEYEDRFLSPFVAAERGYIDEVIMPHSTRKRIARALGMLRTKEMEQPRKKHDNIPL
T1 sequence (C5AWU5 1-667 partner): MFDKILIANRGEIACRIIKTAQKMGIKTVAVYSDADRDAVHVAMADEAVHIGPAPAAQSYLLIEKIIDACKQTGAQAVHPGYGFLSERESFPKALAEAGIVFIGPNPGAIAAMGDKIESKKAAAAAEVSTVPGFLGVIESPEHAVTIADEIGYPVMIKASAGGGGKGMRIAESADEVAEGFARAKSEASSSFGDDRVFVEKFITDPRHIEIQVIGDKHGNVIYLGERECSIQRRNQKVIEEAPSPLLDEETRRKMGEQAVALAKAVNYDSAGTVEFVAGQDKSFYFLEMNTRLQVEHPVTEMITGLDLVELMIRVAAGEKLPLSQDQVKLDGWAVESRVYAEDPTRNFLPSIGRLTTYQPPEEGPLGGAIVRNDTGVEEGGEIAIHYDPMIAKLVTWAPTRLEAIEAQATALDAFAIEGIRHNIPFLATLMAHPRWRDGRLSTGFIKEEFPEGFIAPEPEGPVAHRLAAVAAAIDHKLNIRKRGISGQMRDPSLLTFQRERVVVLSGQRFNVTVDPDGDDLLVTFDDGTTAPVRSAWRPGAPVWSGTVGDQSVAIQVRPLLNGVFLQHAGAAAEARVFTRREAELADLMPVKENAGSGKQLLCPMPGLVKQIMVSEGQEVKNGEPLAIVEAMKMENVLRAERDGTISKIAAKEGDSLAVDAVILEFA
Description: The carboxylation activity can be measured as catalytic rate of carboxylation of glycolyl-CoA (conversion of glycolyl-CoA into tartronyl-CoA) (Scheffen, loc. cit.). Catalytic rate (kcat) is here defined as the maximum formation rate of tartronyl-CoA out of glycolyl-CoA and HCO3^−. It describes how many mol of the substrate are converted per time and per mol of enzyme. It can only be approximated as it requires 100% substrate saturation of the active sites. Therefore, turnover rates at different initial substrate concentrations can be measured to compute the catalytic rate with the Michaelis-Menten equation.

[2] = system: Glycolyl-CoA Carboxylase GCC M5 (Methylorubrum extorquens propionyl-CoA carboxylase variant L100S, Y143H, D407I, I450V, W502R; β-subunit SEQ ID NO: 1 …); conditions: cited from earlier work
[3] = molecular target: T2, GCC M5_G20R (M. extorquens) β-subunit G20R, L100S, Y143H, D407I, I450V, W502R mutations
T2 chain: T1 sequence (C5AP75 1-510 G20R/L100S/Y143H/D407I/I450V/W502R)

[4] = molecular target: T3, GCC M5 (M. extorquens) β-subunit L100S, Y143H, D407I, I450V, W502R mutations (Methylorubrum extorquens); test: mass photometry of purified protein
T3 construct: Engineered β-subunit (carboxyltransferase), forms the β6 core; also called S100S; β6 core of GCC M5
T3 chain: T1 sequence (C5AP75 1-510 G20R/L100S/Y143H/D407I/I450V/W502R) with R20G
Procedure: (§1) Mass photometry (MP) measurements were carried out on microscope coverslips (1.5 H, 24×50 mm, Carl Roth) with CultureWell™ Reusable Gaskets (CW-50R-1.0, 50-3 mm diameter×1 mm depth) that had been washed by three consecutive rinses of water and isopropanol, prior to drying under a stream of pressurized air. Gaskets were assembled on microscope coverslips and placed on the stage of a TwoMP mass photometer (MP, Refeyn Ltd, Oxford, UK) with immersion oil. Measurements were carried out in 1× phosphate-buffered saline (PBS, 10 mM Na₂HPO₄, 1.8 mM KH₂PO₄, 137 mM NaCl, 2.7 mM KCl (pH 7.4)). To this end, 18 μL 1×PBS was used to focus the MP before 2 μL sample (1 μM protein) was added, rapidly mixed, and measured. Shortly before measuring, samples were prepared by diluting purified protein to 1 μM monomer concentration in buffer (50 mM HEPES, pH 7.8, 150 mM KCl), as determined by absorption at 280 nm. Data was acquired for 60 s at 100 frames per second using AcquireMP (Refeyn Ltd, Oxford, UK). MP contrast was calibrated to molecular masses using 50 nM of in-house purified protein mixture containing citrate-synthase complexes of known molecular masses ranging from 86 to 430 kDa. MP datasets were processed and analyzed using DiscoverMP (Refeyn Ltd, Oxford, UK). Details of MP image analysis have been described previously (Sonn-Segev, et al., 2020, Nat Commun 11, 1772).

[5] = molecular target: T4, GCC M5_L100N (M. extorquens) β-subunit L100N, Y143H, D407I, I450V, W502R mutations (Methylorubrum extorquens); test: mass photometry of purified protein
T4 construct: Engineered β-subunit, forms the β6 core; Cryo-EM structure PDB 8PN8; also called S100N; GCC M5 S100N
T4 chain: T1 sequence (C5AP75 1-510 G20R/L100S/Y143H/D407I/I450V/W502R) with R20G, S100N
Procedure: as §1

[6] = molecular target: T5, PCC WT (M. extorquens) β-subunit (Methylorubrum extorquens); test: mass photometry of purified protein
T5 construct: Wild-type β-subunit of propionyl-CoA carboxylase, forms the β6 core; also called PCC wildtype; PCC from M. extorquens
T5 chain: T1 sequence (C5AP75 1-510 G20R/L100S/Y143H/D407I/I450V/W502R) with R20G, S100L, H143Y, I407D, V450I, R502W
Procedure: as §1

[7] = means±s.d., reference Scheffen loc. cit.

With `CC(C)(COP(=O)(O)OP(=O)(O)OC[C@H]1O[C@@H](n2cnc3c(N)ncnc32)[C@H](O)[C@@H]1OP(=O)(O)O)[C@@H](O)C(=O)NCCC(=O)NCCSC(=O)CO` [Glycolyl-CoA, glycolyl-CoA] as the molecule, how does the “Vmax, fold higher than GCC M5” value ([1]; G20R versus GCC M5) read?
The value was 1.8 -fold.

And the “apparent KM value for glycolyl-CoA (change versus GCC M5)” value ([1]; G20R versus GCC M5, result in words)?
The value was “slightly increased”.

What about the kcat ([1]; G20R, unit not given) of the same molecule?
The kcat was 9.8±0.2.

What about the “catalytic rate of carboxylation of glycolyl-CoA” value ([2]; Scheffen, Nat. Catal. 4, 105-115, 2021) of the same molecule?
Its value is 5.6 ± 0.3 s⁻¹.

And the Km ([2]; means±s.d., reference Scheffen loc. cit., read-out: App. KM)?
The Km was 150 ± 30 µM.

What about the Vmax [2, 7] of the same molecule?
The Vmax was 2590 ± 130 nmol/min/mg.

What about the kcat [2, 7] of the same molecule?
The kcat was 5.6 ± 0.3 s⁻¹.

What about the kcat/KM ([2]; reference Scheffen loc. cit.) of the same molecule?
The kcat/KM was 36300 M⁻¹ s⁻¹.

B1: PCC WT (M. extorquens) α-subunit (protein)
chain: T1 sequence (C5AWU5 1-667 partner)
What does the source list for B1?
Specific activity (nmol min^-1 mg^-1) (nmol min^-1 mg^-1) [3]: 2600; Vmax [nmol min^-1 mg^-1], glycolyl-CoA (nmol min^-1 mg^-1) [3]: 4520; kcat [s^-1], glycolyl-CoA [3]: 9.8 s⁻¹

B2: PCC WT (M. extorquens) α-subunit (enzyme)
chain: T1 sequence (C5AWU5 1-667 partner)
modifications: biotin covalently bound to a lysine (position not given)
notes: Co-expressed with the β-subunit and BirA in E. coli BL21-birA and purified by His-Trap; also called α-subunit of the PCC; GCC M5 α-subunit
Does B2 bind [4]?
Result: binds

Does B2 bind [5]?
Result: binds

Does B2 bind [6]?
Result: binds
